Reference: US20140335038A1, “METHOD OF STRENGTHENING HAIR FIBRES” (priority 2011, published 2014)

Assay: DSC denaturation peak temperature of treated dark brown hair
Parameters: species or system Human
Conditions: Example 4, 5 treatments, pH 5, 32° C.
Method: DSC measures the denaturation temperature of the α-helical proteins in the microfibrils of the hair fibre. This temperature is influenced by the cross-link density of the surrounding matrix proteins (Wortmann et al., J. Cosmet. Sci., 53, 219-228 (2002)). A higher denaturation peak temperature indicates greater integrity of the fibre. Damage repair was assessed using DSC. A Mettler Toledo DSC1 analyser was used. The hair was shaved, using clippers, into 1-2 mm lengths. Approximately 5 mg of sample was weighed into a pressure resistant (20 bar), stainless steel, large volume pan (120 μL capacity). 50 μL of water was added and the pan was sealed. The samples were then mixed using a rotary mixer and left overnight to allow the water to equilibrate throughout the sample. […] The helix transition temperature was measured. Each sample was measured three times. Selected 2'' hair switches were bleached once using […] […] 4200 μL Britton-Robinson buffer (62.5 mM pH 5; final concentration 50 mM) 600 μl hydrogen peroxide 3% (SBP- or HRP-treated sample and (+)-catechin/H2O2 treated sample) or 600 μL milliQ water (laccase-treated sample and (+)-catechin treated sample) 600 μL (+)-catechin, 100 mg/mL stock in DMSO The reagents listed above were combined in 15 mL Falcon centrifuge tubes. […] Samples were measured three times.

With `Oc1cc(O)c2c(c1)O[C@H](c1ccc(O)c(O)c1)[C@@H](O)C2` [(+)-Catechin, (+)-catechin] the Denaturation peak temperature (dark brown hair bleached x1) was 153.38 +/− 0.43 °C and the Denaturation peak temperature (unbleached dark brown hair) was 151.16 +/− 0.49 °C.
